Reference: patent US11007169B2, “Cis-gnetin H and trans-gnetin H as therapeutic agents” (MIDDLE TENNESSEE STATE UNIVERSITY, priority 2014, dated 2021)
Where “and” joins values, the source holds several entries; their conditions need not be identical. Equal entries are not always repeated.

Experiments:
[1] = system: p65 (RelA) nuclear translocation in THP-1 cells; experiment: Indirect immunofluorescence for NF-κB nuclear translocation; assay type: cell-based, human; conditions: pretreated 1 h, LPS 30 min; Bay 11-7082 10 μM
Experimental: (§1) THP-1 cells were maintained in RPMI 1640 medium supplemented with 10% complement-inactivated FBS and 1% penicillin/streptomycin (complete culture medium) at 37° C. with 5% CO2 supplemented. Cell concentrations were adjusted to desired concentrations for each experiment by centrifugation at 500×g for 5 min and resuspended in complete culture medium with 100 nM of PMA. Cell concentration was adjusted to 5×10^5 cells/ml for all assays and 2.5×10^5 cells/ml were used for NF-κB nuclear translocation assay. Cells were seeded onto 96-, 24-, or 12-well plates and incubated for 48 to 72 h to allow for differentiation. Cells were washed with serum-free RPMI 1640 medium before each experiment to remove the undifferentiated cells.
Differentiated THP-1 cells were pretreated with 50 μM of cis-gnetin H, trans-gnetin H, or 10 μM of Bay 11-7082 for 1 h and stimulated with 1 μg/ml of LPS for 30 min. Bay 11-7082 is a compound that inhibits IKK α/β and IκB α phosphorylation and was used as a positive control (Juliana et al., 2010, J. Biol. Chem., 285:9792-802). Treated cells were fixed, permeabilized, blocked, and stained with NF-κB, p65 primary antibody, Dylight 488 conjugated secondary antibody, and Hoechst 33342 dye, sequentially. The Hoechst and DyLight fluorophores detect changes in nuclear morphology (blue fluorescence) and NF-κB distribution (green fluorescence) respectively. Nuclear Translocation Bioapplication software on the Arrayscan VTI reader was used for image acquisition and analysis. For each well, at least 400 cells were automatically acquired and analyzed. The translocation index was calculated by measuring the average intensity difference of NF-icB between the identified cytoplasmic region and nuclear region.

[2] = system: TNF-α in LPS-stimulated THP-1 cells; experiment: Cytokine response by ELISA, TNF-α; assay type: cell-based, human; conditions: Homo sapiens, THP-1; 1 μM, 20 ng/ml LPS 4 h
Experimental: as §1
(§2) Differentiated THP-1 cells were pretreated with various concentrations of cis-gnetin H, trans-gnetin H, or 1 μM of dexamethasone for 1 h and stimulated with 20 ng/ml of LPS for 4 h. Dexamethasone is a synthetic glucocorticoid that suppresses cytokine response and was used as a positive control (Abraham et al., 2006, J. Exp. Med., 203:1883-9; Steer et al., J. Biol. Chem., 2000, 275(24):18432-40). Supernatants were collected for human cytokine ELISAs and the manufacturer's protocol was followed to assess the cytokine response. Cells remaining after the supernatant collection were tested for relative viability by Alamar Blue cytotoxicity assay as described earlier.

[3] = system: IL-1β in LPS-stimulated THP-1 cells; experiment: Cytokine response by ELISA, IL-1β; assay type: cell-based, human; conditions: Homo sapiens, THP-1; 1 μM, 20 ng/ml LPS 4 h
Experimental: as §1, §2

[4] = system: IL-8 in LPS-stimulated THP-1 cells; experiment: Cytokine response by ELISA, IL-8; assay type: cell-based, human; conditions: Homo sapiens, THP-1; 1 μM, 20 ng/ml LPS 4 h
Experimental: as §1, §2

[5] = system: A549 lung cancer cell line; conditions: literature values; read-out: IC50 against the A549 lung cancer cell line; cited from earlier work

In the case of Cc1ccc(S(=O)(=O)C=CC#N)cc1 [Bay 11-7082, 3-(4-methylphenylsulfonyl)-2-propenenitrile, reference compound], the p65 nuclear translocation [1] is reported as “inhibited the p65 nuclear translocation”.

C[C@@H]1C[C@H]2[C@@H]3CCC4=CC(=O)C=C[C@]4(C)[C@@]3(F)[C@@H](O)C[C@]2(C)[C@@]1(O)C(=O)CO [Dexamethasone, dexamethasone, reference compound] showed an inhibition at 1 µM [2] of 58%, an inhibition at 1 µM [3] of 56% and an inhibition at 1 µM [4] of 63%.

In the case of Oc1ccc(C=Cc2cc(O)cc(O)c2)cc1 [Resveratrol, 3,5,4′-trihydroxystilbene], the IC50 [5] is listed as 8.9 µM and > 10 µM.
